The Deep4Chem optical property database
Where “and” joins values, the source holds several entries; their conditions need not be identical. Identical values can stand only once.

Experiment: solvent given as SMILES
[1] = in c1cc(-n2c3ccccc3c3ccccc32)cc(-n2c3ccccc3c3ccccc32)c1

`COc1cccc2c1C(=O)c1ccccc1-2` showed a fluorescence lifetime (in CC#N) of 2.1 ns, a fluorescence lifetime (in CC(C)O) of 8.52 ns and a fluorescence lifetime (in CCCCO) of 7.27 ns. The fluorescence lifetime (in CCCO) was 6.93 ns, the fluorescence lifetime (in CCO) was 5.98 ns and the fluorescence lifetime (in CO) was 3.82 ns.

`CC(C)(C)NC1=CC2=c3cc(NC(C)(C)C)c4nc(C(F)(F)C(F)(F)C(F)(F)F)nc5c(NC(C)(C)C)cc(c3c54)C3=CC(NC(C)(C)C)=C4N=C(C(F)(F)C(F)(F)C(F)(F)F)N=C1C4C32` (stereo not drawn) gave a fluorescence lifetime (in C1CCOC1) of 6.1 ns.

In the case of `Cc1ccsc1-c1ccc(-c2ccc(-c3sccc3C)s2)s1`, the fluorescence lifetime (in CCC(C)C) is reported as 0.43 ns.

`CCOC(=O)CN(CC(=O)OCC)c1ccc(-c2cc(-c3ccccn3)nc(-c3ccccn3)c2)cc1` gave a fluorescence lifetime (in CC#N) of 5.21 ns, a fluorescence lifetime (in CCOC(C)=O) of 3.84 ns and a fluorescence lifetime (in CN(C)C=O) of 6.02 ns. For the same compound, the fluorescence lifetime (in CS(C)=O) was 6.76 ns and the fluorescence lifetime (in c1ccccc1) was 1.63 ns.

With `c1ccc([B-]2(c3ccccc3)Oc3ccc4ccccc4c3-c3c4ccccc4cn[n+]32)cc1` the fluorescence lifetime (in Cc1ccccc1) was 9.32 ns.

For `O=[N+]([O-])c1ccc([N+]2=Cc3ccc4ccccc4c3O[B-]2(F)F)cc1`, the fluorescence lifetime (in ClCCl) was 7.6 ns.

For `CCC(=O)c1ccc2cc(N(C)C)ccc2c1`, the fluorescence lifetime (in C1CCCCC1) was 1.6 ns, the fluorescence lifetime (in C1CCOC1) was 3.58 ns and the fluorescence lifetime (in CC#N) was 3.96 ns. For the same compound, the fluorescence lifetime (in CCCCCC) was 0.29 ns, the fluorescence lifetime (in CCO) was 3.65 ns and the fluorescence lifetime (in CN(C)C=O) was 3.85 ns. It also gave a fluorescence lifetime (in CO) of 3.04 ns, a fluorescence lifetime (in CS(C)=O) of 3.12 ns and a fluorescence lifetime (in Cc1ccccc1) of 2.33 ns. It also gave a fluorescence lifetime (in ClC(Cl)Cl) of 3.09 ns, a fluorescence lifetime (in ClCCl) of 3.44 ns and a fluorescence lifetime (in O) of 2.1 ns. The fluorescence lifetime (in OCC(O)CO) was 3.8 ns and the fluorescence lifetime (in c1ccccc1) was 3.3 ns.

Compound `c1ccc2c(-c3ccc4sc5ccc(-c6c7ccccc7cc7ccccc67)cc5c4c3)c3ccccc3cc2c1` has a fluorescence lifetime (in C1CCCCC1) of 3.9 ns, a fluorescence lifetime (in CC#N) of 4.3 ns and a fluorescence lifetime (in ClCCl) of 4.7 ns.

Work on `c1ccc2cc(-n3cnc4ccccc43)ccc2c1` yielded a fluorescence lifetime (in C1CCCCC1) of 4.7 ns, a fluorescence lifetime (in CCOC(C)=O) of 4.1 ns and a fluorescence lifetime (in CO) of 5.1 ns.

`COc1ccc(/N=N/c2c(O)c3ccccc3n(C)c2=O)c(S(=O)(=O)O)c1` gave a fluorescence lifetime (in CS(C)=O) of 0.04 ns.

Work on `OCc1cc2c(cc3ccc4cccc5ccc2c3c45)[nH]1` yielded a fluorescence lifetime (in CCOC(C)=O) of 2.64 ns.

Work on `CCCCCCCC[Si](C)(C)c1cccc2ccccc12` yielded a fluorescence lifetime (in C1CCCCC1) of 62 ns.

Work on `CCCCCCN(CCCCCC)c1ccc(C#Cc2ccc(C(F)(F)F)cc2)cc1` yielded a fluorescence lifetime (in ClCCl) of 2.1 ns.

With `N#Cc1cc(-n2c3ccccc3c3cccnc32)c(-n2c3ccccc3c3cccnc32)cc1C#N` the fluorescence lifetime [1] was 86 ns.

In the case of `CCOC(=O)c1ccc(C2=Cc3cc4ccccc4cc3P2(=O)c2ccccc2)cc1` (stereo not drawn), the fluorescence lifetime (in ClCCl) is reported as 2.8 ns.

With `N#Cc1cc(-n2c3ccccc3c3ccccc32)c(C#N)cc1-n1c2ccccc2c2ccccc21` the fluorescence lifetime (in c1ccc2c(c1)c1ccccc1n2P1(n2c3ccccc3c3ccccc32)=NP(n2c3ccccc3c3ccccc32)(n2c3ccccc3c3ccccc32)=NP(n2c3ccccc3c3ccccc32)(n2c3ccccc3c3ccccc32)=N1) was 34 ns.

In the case of `COc1ccc(C2=C3C(C)=CC(C=Cc4ccc(C(=O)OC5C[C@H]6CCC5(C)C6(C)C)cc4)=[N+]3[B-](F)(F)n3c(C)cc(C)c32)cc1` (stereo partly drawn), the fluorescence lifetime (in Cc1ccccc1) is reported as 3.82 ns.

`Nc1cccc2cn[nH]c12` gave a fluorescence lifetime (in CC#N) of 4.63 ns, a fluorescence lifetime (in CO) of 1.69 ns and a fluorescence lifetime (in O) of 1.74 ns.

In the case of `COc1ccc(-c2c3cc4ccccc4cc3c(C#Cc3ccccc3)c3cc4cc(C)sc4cc23)cc1`, the fluorescence lifetime (in ClCCl) is reported as 11.6 ns.

With `Nc1ccc2cc3ccccc3cc2c1` the fluorescence lifetime (in C1CCCCC1) was 33 ns.

For `CC(C)[Si](C#CC1=CC2=c3cc(C#C[Si](C(C)C)(C(C)C)C(C)C)c4nc(C(F)(F)C(F)(F)C(F)(F)F)nc5c(C#C[Si](C(C)C)(C(C)C)C(C)C)cc(c3c54)C3=CC(C#C[Si](C(C)C)(C(C)C)C(C)C)=C4N=C(C(F)(F)C(F)(F)C(F)(F)F)N=C1C4C32)(C(C)C)C(C)C` (stereo not drawn), the fluorescence lifetime (in C1CCOC1) was 2 ns.

Work on `CC1=C(c2ccccc2)C(C)=[N+]2C1=C(c1ccccc1)c1c(C)c(-c3ccccc3)c(C)n1[B-]2(F)F` yielded a fluorescence lifetime (in Cc1ccccc1) of 4.1 ns.

Work on `c1ccc(-c2nc(-c3ccccc3)c(-c3ccccc3)o2)cc1` yielded a fluorescence lifetime (in Cc1ccccc1) of 1.27 ns.

Compound `C1=CC2C=c3c(cc4cccc5cc6ccccc6c3c45)C3=c4ccccc4=CC(=C1)C32` (stereo not drawn) has a fluorescence lifetime (in ClCCl) of 3.16 ns.

Work on `CC1(C)C(/C=C/C2=C(Oc3ccc(CCN=C=S)cc3I)C(=C/C=C3/N(CCCS(=O)(=O)[O-])c4ccccc4C3(C)C)/CCC2)=[N+](CCCS(=O)(=O)[O-])c2ccccc21` yielded a fluorescence lifetime (in CO) of 0.947 ns.

Compound `Cc1ccc(-c2c3ccc([nH]3)c3nc(c(-c4ccc(C#N)cc4)c4ccc([nH]4)c4ccc([nH]4)c(-c4ccc(C)cc4)c4ccc2o4)C=C3)cc1` has a fluorescence lifetime (in C1CCOC1) of 5.26 ns, a fluorescence lifetime (in Cc1ccccc1) of 4.39 ns and a fluorescence lifetime (in c1ccccc1) of 5.94 ns.

Compound `CCCCCCN(CCCCCC)c1ccc(C#Cc2ccc(-c3ccc(C#Cc4ccc(N(CCCCCC)CCCCCC)cc4)cc3)cc2)cc1` has a fluorescence lifetime (in Cc1ccccc1) of 1 ns.

In the case of `COc1ccc(-c2ccc3c(c2)c2cc(-c4ccc(OC)cc4)ccc2n3-c2ccc(C(=O)c3ccc4sc5ccccc5c4c3)cc2)cc1`, the fluorescence lifetime [1] is reported as 7.8 ns.

`c1ccc2c(-n3c4ccccc4c4ccccc43)cccc2c1` showed a fluorescence lifetime (in C1CCCCC1) of 4.9 ns, a fluorescence lifetime (in CCOC(C)=O) of 4.9 ns and a fluorescence lifetime (in CO) of 5.1 ns.

In the case of `Nc1ccc2c(c1)C(=O)NC2=O`, the fluorescence lifetime (in C1CCOC1) is reported as 12.4 ns and 20.8 ns, the fluorescence lifetime (in C1COCCO1) is reported as 15 ns and the fluorescence lifetime (in CC#N) is reported as 14 ns. The fluorescence lifetime (in CCO) was 10 ns and the fluorescence lifetime (in CN(C)C=O) was 22 ns.

`O=C1c2ccc3c4c(NC5CCCCC5)cc5c6c(ccc(c7c(NC8CCCCC8)cc(c2c37)C(=O)N1C1CCCCC1)c64)C(=O)N(C1CCCCC1)C5=O` showed a fluorescence lifetime (in ClC(Cl)Cl) of 1.4 ns.

Work on `[O-]c1ccccc1/C=N/c1ccccc1/N=C/c1ccccc1[O-]` yielded a fluorescence lifetime (in C1CCOC1) of 0.0036 ns.
